8 compounds from ChEMBL document CHEMBL3046243, “Synthesis, antifungal activity and SAR of N-substituted and N,N-disubstituted 2,4-dihydroxythiobenzamides” (J Pestic Sci, 2006) can be followed below.

By logP is commonly meant the decadic logarithm of the partition coefficient of the neutral form, usually between octanol and water. Read a low logP as lower lipophilicity.

One data set relates to Rhizoctonia solani. The experiment in a line: Antifungal activity against Rhizoctonia solani assessed as inhibition of mycelial growth at 200 ppm at 21 +/- 1 degC measured after 4 days. The following applies: 96 h, read-out: GI. It is filed as functional.
On to `Cc1cc(NC(=S)c2ccc(O)cc2O)ccc1N1C(=O)c2ccc(Cl)cc2C1=O`, for which the inhibition of growth at 200 ppm was 0%.

For `Oc1ccc(C(=S)Nc2cc(C(F)(F)F)cc(C(F)(F)F)c2)c(O)c1`, the inhibition of growth at 200 ppm was found to be 81%.

Turning to `Oc1ccc(C(=S)Nc2cccc3c2CCCC3)c(O)c1`, the inhibition of growth at 200 ppm came to 81%.

Consider `CCN(C(=S)c1ccc(O)cc1O)c1cccc2ccccc12`, for which the inhibition of growth at 200 ppm came to 0%.

On to `Oc1ccc(C(=S)N(Cc2ccccc2)c2ccccn2)c(O)c1`, for which the inhibition of growth at 200 ppm amounted to 21%.

Regarding `C=C(C)c1ccccc1NC(=S)c1ccc(O)cc1O`, the inhibition of growth at 200 ppm stood at 81%.

The subject of a further data set is Fusarium culmorum. Description: Antifungal activity against Fusarium culmorum assessed as inhibition of mycelial growth at 200 ppm at 21 +/- 1 degC measured after 5 days. It is filed as functional. The following applies: 120 h, read-out: GI.
As to `CCCN(CCOc1c(Cl)cc(Cl)cc1Cl)C(=O)n1ccnc1` [PROCHLORAZ], the inhibition of growth at 200 ppm came to 81%.

As for `Cc1cc(NC(=S)c2ccc(O)cc2O)ccc1N1C(=O)c2ccc(Cl)cc2C1=O`, the inhibition of growth at 200 ppm amounted to 21%.

For the compound `Oc1ccc(C(=S)Nc2cc(C(F)(F)F)cc(C(F)(F)F)c2)c(O)c1`, the inhibition of growth at 200 ppm came to 81%.

On to `Oc1ccc(C(=S)Nc2cccc3c2CCCC3)c(O)c1`, for which the inhibition of growth at 200 ppm came out at 81%.

As to `CCN(C(=S)c1ccc(O)cc1O)c1cccc2ccccc12`, the inhibition of growth at 200 ppm stood at 21%.

As to `Oc1ccc(C(=S)N(Cc2ccccc2)c2ccccn2)c(O)c1`, the inhibition of growth at 200 ppm was 21%.

Turning to `C=C(C)c1ccccc1NC(=S)c1ccc(O)cc1O`, the inhibition of growth at 200 ppm amounted to 81%.

Another data set relates to Phytophthora cactorum. Description: Antifungal activity against Phytophthora cactorum assessed as inhibition of mycelial growth at 20 ppm at 21 +/- 1 degC measured after 5 days. The following applies: 120 h, read-out: GI. The data set is classed as functional.
With `CCCN(CCOc1c(Cl)cc(Cl)cc1Cl)C(=O)n1ccnc1` [PROCHLORAZ], the inhibition of growth at 20 ppm stood at 81%.

Take `Cc1cc(NC(=S)c2ccc(O)cc2O)ccc1N1C(=O)c2ccc(Cl)cc2C1=O`: the inhibition of growth at 20 ppm was determined as 0%.

As to `Oc1ccc(C(=S)Nc2cc(C(F)(F)F)cc(C(F)(F)F)c2)c(O)c1`, the inhibition of growth at 20 ppm turned out to be 51%.

Take `Oc1ccc(C(=S)Nc2cccc3c2CCCC3)c(O)c1`: the inhibition of growth at 20 ppm amounted to 51%.

On to `CCN(C(=S)c1ccc(O)cc1O)c1cccc2ccccc12`, for which the inhibition of growth at 20 ppm worked out at 0%.

As to `Oc1ccc(C(=S)N(Cc2ccccc2)c2ccccn2)c(O)c1`, the inhibition of growth at 20 ppm amounted to 0%.

With `C=C(C)c1ccccc1NC(=S)c1ccc(O)cc1O`, the inhibition of growth at 20 ppm came out at 51%.

The subject of another data set is Botrytis cinerea. Description: Antifungal activity against Botryotinia fuckeliana assessed as inhibition of mycelial growth at 20 ppm at 21 +/- 1 degC measured after 3 days. The data set is classed as functional. The following applies: 72 h, read-out: GI.
As for `Cc1cc(NC(=S)c2ccc(O)cc2O)ccc1N1C(=O)c2ccc(Cl)cc2C1=O`, the inhibition of growth at 20 ppm was 0%.

In the case of `Oc1ccc(C(=S)Nc2cc(C(F)(F)F)cc(C(F)(F)F)c2)c(O)c1`, the inhibition of growth at 20 ppm was 51%.

Regarding `Oc1ccc(C(=S)Nc2cccc3c2CCCC3)c(O)c1`, the inhibition of growth at 20 ppm came to 51%.

`CCN(C(=S)c1ccc(O)cc1O)c1cccc2ccccc12`: the inhibition of growth at 20 ppm came to 0%.

For `Oc1ccc(C(=S)N(Cc2ccccc2)c2ccccn2)c(O)c1`, the inhibition of growth at 20 ppm came out at 0%.

On to `CC12CC1(C)C(=O)N(c1cc(Cl)cc(Cl)c1)C2=O` (configuration not stated) [PROCYMIDONE], for which the inhibition of growth at 20 ppm stood at 81%.

Turning to `C=C(C)c1ccccc1NC(=S)c1ccc(O)cc1O`, the inhibition of growth at 20 ppm is 51%.

In the next data set the test system is Rhizoctonia solani. The experiment in a line: Antifungal activity against Rhizoctonia solani assessed as inhibition of mycelial growth at 20 ppm at 21 +/- 1 degC measured after 4 days. The data set is classed as functional. The conditions noted are these: 96 h, read-out: GI.
`Cc1cc(NC(=S)c2ccc(O)cc2O)ccc1N1C(=O)c2ccc(Cl)cc2C1=O`: the inhibition of growth at 20 ppm was 0%.

Regarding `Oc1ccc(C(=S)Nc2cc(C(F)(F)F)cc(C(F)(F)F)c2)c(O)c1`, the inhibition of growth at 20 ppm is 21%.

Regarding `Oc1ccc(C(=S)Nc2cccc3c2CCCC3)c(O)c1`, the inhibition of growth at 20 ppm came to 51%.

For the compound `CCN(C(=S)c1ccc(O)cc1O)c1cccc2ccccc12`, the inhibition of growth at 20 ppm came to 0%.

As to `Oc1ccc(C(=S)N(Cc2ccccc2)c2ccccn2)c(O)c1`, the inhibition of growth at 20 ppm worked out at 0%.

For the compound `C=C(C)c1ccccc1NC(=S)c1ccc(O)cc1O`, the inhibition of growth at 20 ppm came out at 51%.

Another data set relates to Fusarium culmorum. Description: Antifungal activity against Fusarium culmorum assessed as inhibition of mycelial growth at 20 ppm at 21 +/- 1 degC measured after 5 days. It is filed as functional. The conditions noted are these: 120 h, read-out: GI.
Take `CCCN(CCOc1c(Cl)cc(Cl)cc1Cl)C(=O)n1ccnc1` [PROCHLORAZ]: the inhibition of growth at 20 ppm was 81%.

As to `Cc1cc(NC(=S)c2ccc(O)cc2O)ccc1N1C(=O)c2ccc(Cl)cc2C1=O`, the inhibition of growth at 20 ppm was 0%.

`Oc1ccc(C(=S)Nc2cc(C(F)(F)F)cc(C(F)(F)F)c2)c(O)c1`: the inhibition of growth at 20 ppm came out at 51%.

Turning to `Oc1ccc(C(=S)Nc2cccc3c2CCCC3)c(O)c1`, the inhibition of growth at 20 ppm was determined as 51%.

Turning to `CCN(C(=S)c1ccc(O)cc1O)c1cccc2ccccc12`, the inhibition of growth at 20 ppm was found to be 0%.

Regarding `Oc1ccc(C(=S)N(Cc2ccccc2)c2ccccn2)c(O)c1`, the inhibition of growth at 20 ppm came to 0%.

On to `C=C(C)c1ccccc1NC(=S)c1ccc(O)cc1O`, for which the inhibition of growth at 20 ppm was 51%.

Tested on in a further data set: not listed separately
The experiment in a line: Octanol-water partition coefficient, log P of the compound.
Conditions: not given
The data set is classed as physicochemical.
With `Cc1cc(NC(=S)c2ccc(O)cc2O)ccc1N1C(=O)c2ccc(Cl)cc2C1=O`, the lipophilicity (logP) was determined as 4.57.

Compound `Oc1ccc(C(=S)Nc2cc(C(F)(F)F)cc(C(F)(F)F)c2)c(O)c1` came in with a log partition coefficient (logP) of 4.75.

Compound `Oc1ccc(C(=S)Nc2cccc3c2CCCC3)c(O)c1` displayed a logP of 4.22.

In turn, `CCN(C(=S)c1ccc(O)cc1O)c1cccc2ccccc12` showed a logP of 5.03.

Compound `Oc1ccc(C(=S)N(Cc2ccccc2)c2ccccn2)c(O)c1` registered a lipophilicity (logP) of 4.56.

With `C=C(C)c1ccccc1NC(=S)c1ccc(O)cc1O`, the log partition coefficient (logP) stood at 4.27.

For a further data set, the system named is Alternaria alternata. Description: Antifungal activity against Alternaria alternata assessed as inhibition of mycelial growth at 200 ppm at 21 +/- 1 degC measured after 5 days. The data set is classed as functional. The following applies: 120 h, read-out: GI.
On to `CCCN(CCOc1c(Cl)cc(Cl)cc1Cl)C(=O)n1ccnc1` [PROCHLORAZ], for which the inhibition of growth at 200 ppm is 81%.

Regarding `Cc1cc(NC(=S)c2ccc(O)cc2O)ccc1N1C(=O)c2ccc(Cl)cc2C1=O`, the inhibition of growth at 200 ppm amounted to 21%.

Regarding `Oc1ccc(C(=S)Nc2cc(C(F)(F)F)cc(C(F)(F)F)c2)c(O)c1`, the inhibition of growth at 200 ppm stood at 81%.

On to `Oc1ccc(C(=S)Nc2cccc3c2CCCC3)c(O)c1`, for which the inhibition of growth at 200 ppm stood at 81%.

As for `CCN(C(=S)c1ccc(O)cc1O)c1cccc2ccccc12`, the inhibition of growth at 200 ppm is 21%.

With `Oc1ccc(C(=S)N(Cc2ccccc2)c2ccccn2)c(O)c1`, the inhibition of growth at 200 ppm is 21%.

In the case of `CC12CC1(C)C(=O)N(c1cc(Cl)cc(Cl)c1)C2=O` (configuration not stated) [PROCYMIDONE], the inhibition of growth at 200 ppm came out at 81%.

Consider `C=C(C)c1ccccc1NC(=S)c1ccc(O)cc1O`, for which the inhibition of growth at 200 ppm stood at 81%.

Tested on in a further data set: not listed separately
Description: Lipophilicity, log K of the compound in water. The conditions noted are these: buffer. The data set is classed as physicochemical.
Compound `Cc1cc(NC(=S)c2ccc(O)cc2O)ccc1N1C(=O)c2ccc(Cl)cc2C1=O` registered a logKw of 3.63.

`Oc1ccc(C(=S)Nc2cc(C(F)(F)F)cc(C(F)(F)F)c2)c(O)c1` returned a logKw of 6.06.

Compound `Oc1ccc(C(=S)Nc2cccc3c2CCCC3)c(O)c1` registered a logKw of 3.56.

`CCN(C(=S)c1ccc(O)cc1O)c1cccc2ccccc12` came in with a logKw of 5.09.

Regarding `Oc1ccc(C(=S)N(Cc2ccccc2)c2ccccn2)c(O)c1`, the logKw is on record as 3.96.

In turn, `C=C(C)c1ccccc1NC(=S)c1ccc(O)cc1O` registered a logKw of 4.55.

The subject of the next data set is Botrytis cinerea. The experiment in a line: Antifungal activity against Botryotinia fuckeliana assessed as inhibition of mycelial growth at 200 ppm at 21 +/- 1 degC measured after 3 days. The data set is classed as functional. The conditions noted are these: 72 h, read-out: GI.
Take `Cc1cc(NC(=S)c2ccc(O)cc2O)ccc1N1C(=O)c2ccc(Cl)cc2C1=O`: the inhibition of growth at 200 ppm is 0%.

As to `Oc1ccc(C(=S)Nc2cc(C(F)(F)F)cc(C(F)(F)F)c2)c(O)c1`, the inhibition of growth at 200 ppm stood at 81%.

With `Oc1ccc(C(=S)Nc2cccc3c2CCCC3)c(O)c1`, the inhibition of growth at 200 ppm was determined as 81%.

Regarding `CCN(C(=S)c1ccc(O)cc1O)c1cccc2ccccc12`, the inhibition of growth at 200 ppm was found to be 0%.

Regarding `Oc1ccc(C(=S)N(Cc2ccccc2)c2ccccn2)c(O)c1`, the inhibition of growth at 200 ppm amounted to 51%.

Turning to `CC12CC1(C)C(=O)N(c1cc(Cl)cc(Cl)c1)C2=O` (configuration not stated) [PROCYMIDONE], the inhibition of growth at 200 ppm was determined as 81%.

For the compound `C=C(C)c1ccccc1NC(=S)c1ccc(O)cc1O`, the inhibition of growth at 200 ppm amounted to 81%.

Another data set concerns Alternaria alternata. Description: Antifungal activity against Alternaria alternata assessed as inhibition of mycelial growth at 20 ppm at 21 +/- 1 degC measured after 5 days. The data set is classed as functional. The following applies: 120 h, read-out: GI.
Consider `CCCN(CCOc1c(Cl)cc(Cl)cc1Cl)C(=O)n1ccnc1` [PROCHLORAZ], for which the inhibition of growth at 20 ppm was 81%.

On to `Cc1cc(NC(=S)c2ccc(O)cc2O)ccc1N1C(=O)c2ccc(Cl)cc2C1=O`, for which the inhibition of growth at 20 ppm was found to be 0%.

For the compound `Oc1ccc(C(=S)Nc2cc(C(F)(F)F)cc(C(F)(F)F)c2)c(O)c1`, the inhibition of growth at 20 ppm turned out to be 51%.

Consider `Oc1ccc(C(=S)Nc2cccc3c2CCCC3)c(O)c1`, for which the inhibition of growth at 20 ppm turned out to be 51%.

Turning to `CCN(C(=S)c1ccc(O)cc1O)c1cccc2ccccc12`, the inhibition of growth at 20 ppm is 0%.

Turning to `Oc1ccc(C(=S)N(Cc2ccccc2)c2ccccn2)c(O)c1`, the inhibition of growth at 20 ppm worked out at 0%.

As to `CC12CC1(C)C(=O)N(c1cc(Cl)cc(Cl)c1)C2=O` (configuration not stated) [PROCYMIDONE], the inhibition of growth at 20 ppm worked out at 81%.

For the compound `C=C(C)c1ccccc1NC(=S)c1ccc(O)cc1O`, the inhibition of growth at 20 ppm worked out at 51%.

For a further data set, the system named is Phytophthora cactorum. Description: Antifungal activity against Phytophthora cactorum assessed as inhibition of mycelial growth at 200 ppm at 21 +/- 1 degC measured after 5 days. It is filed as functional. The following applies: 120 h, read-out: GI.
In the case of `CCCN(CCOc1c(Cl)cc(Cl)cc1Cl)C(=O)n1ccnc1` [PROCHLORAZ], the inhibition of growth at 200 ppm was determined as 81%.

Consider `Cc1cc(NC(=S)c2ccc(O)cc2O)ccc1N1C(=O)c2ccc(Cl)cc2C1=O`, for which the inhibition of growth at 200 ppm stood at 0%.

For `Oc1ccc(C(=S)Nc2cc(C(F)(F)F)cc(C(F)(F)F)c2)c(O)c1`, the inhibition of growth at 200 ppm was 81%.

Turning to `Oc1ccc(C(=S)Nc2cccc3c2CCCC3)c(O)c1`, the inhibition of growth at 200 ppm came to 81%.

As for `CCN(C(=S)c1ccc(O)cc1O)c1cccc2ccccc12`, the inhibition of growth at 200 ppm is 21%.

In the case of `Oc1ccc(C(=S)N(Cc2ccccc2)c2ccccn2)c(O)c1`, the inhibition of growth at 200 ppm was 21%.

For the compound `C=C(C)c1ccccc1NC(=S)c1ccc(O)cc1O`, the inhibition of growth at 200 ppm stood at 81%.
